Columns and labels:
[1] = Blood clearance profile of peptide-dye conjugates monitored at the rat ear; type: in vivo, Sprague-Dawley or Fischer 344 rats; conditions: bolus injection in the lateral tail vein, 0.5 to 2.0 mL
Text: A laser of appropriate wavelength for excitation of the dye chromophore was directed into one end of a fiber optic bundle and the other end was positioned a few millimeters from the ear of a rat. A second fiber optic bundle was also positioned near the same ear to detect the emitted fluorescent light and the other end was directed into the optics and electronics for data collection. An interference filter (IF) in the collection optics train was used to select emitted fluorescent light of the appropriate wavelength for the dye chromophore.
Sprague-Dawley or Fischer 344 rats were used in these studies. The animals were anesthetized with urethane administered via intraperitoneal injection at a dose of 1.35 g/kg body weight. After the animals had achieved the desired plane of anesthesia, a 21 gauge butterfly with 12" tubing was placed in the lateral tail vein of each animal and flushed with heparinized saline. The animals were placed onto a heating pad and kept warm throughout the entire study. The lobe of the left ear was affixed to a glass microscope slide to reduce movement and vibration.
Incident laser light delivered from the fiber optic was centered on the affixed ear. Data acquisition was then initiated, and a background reading of fluorescence was obtained prior to administration of the test agent. For Cytates 1 or 2, the peptide-dye conjugate was administered to the animal through a bolus injection in the lateral tail vein, typically of 0.5 to 2.0 mL.
This procedure was repeated with several dye-peptide conjugates in normal and tumored rats and representative profiles are shown in FIGS. 6 to 10.

[2] = test system: Rat Pancreatic Acinar Carcinoma (CA20948); test: Imaging of individual organs removed from rat with CA20948 tumor; type: in vivo; conditions: about 24 hours after injection (FIG. 5)
Method: FIG. 5 is an image of individual organs taken from a rat with pancreatic acinar carcinoma (CA20948) about 24 hours after injection with Cytate 1.
(§1) A non-invasive in vivo fluorescence imaging apparatus was employed to assess the efficacy of contrast agents developed for tumor detection in animal models. A LaserMax Inc. laser diode of nominal wavelength 780 nm and nominal power of 40 mW was used. The detector was a Princeton Instruments model RTE/CCD-1317-K/2 CCD camera with a Rodenstock 10 mm F2 lens (stock #542.032.002.20) attached. An 830 nm interference […] (CVI Laser Corp., part # F10-830-4-2) was mounted in front of the CCD input lens such that only emitted fluorescent light from the contrast agent was imaged. Typically, an image of the animal was taken pre-injection of contrast agent. This image was subsequently subtracted (pixel by pixel) from the post injection images. However, the background subtraction was […] done once the animal had been removed from the sample area and returned at a later time for images taken several hours post injection.
Individual organs were removed and imaged. […] This correlates very nicely with radiolabeled Octreotate in the same model system (see de Jong et al., 1998).

[3] = test system: Rat Pancreatic Acinar Carcinoma (CA20948); test: In vivo fluorescence imaging of rat pancreatic acinar carcinoma (CA20948) expressing the SST-2 receptor; set-up: species or system Lewis rat; conditions: for fluorescence in tumored rats at 45 minutes: 45 minutes post injection (FIGS. 2A-B)
Text: as §1
(§2) The animals were anesthetized with rat cocktail (xylazine; ketamine; acepromazine 1.5: 1.5: 0.5) at 0.8 mL/kg via intramuscular injection. The area of the tumor (left flank) was shaved to expose tumor and surrounding surface area. A 21 gauge butterfly equipped with a stopcock and two syringes containing heparinized saline was placed into the later tail vein of the rat. Patency of the vein was checked prior to administration of the ICG via the butterfly apparatus. Each animal received 500 μL of a 0.42 mg/mL solution of ICG in water.
The imaging apparatus and the procedure used are described in Example 9. Rat pancreatic acinar carcinoma expressing the SST-2 receptor (CA20948) were induced by solid implant technique in the left flank area and palpable masses were detected 9 days post implant.
The imaging apparatus and the procedure used are described in Example 9 except that each animal received 500 μL of a 1.0 mg/mL solution of Cytate 1 solution of 25% dimethylsulfoxide in water. Rat pancreatic acinar carcinoma expressing the SST-2 receptor (CA20948) were induced by solid implant technique in the left flank area and palpable masses were detected 24 days post implant. Images were obtained at various times post injection. […] FIGS. 2A-B show a comparison of the uptake of ICG and Cytate 1 at 45 minutes in rats with the CA20948 tumor cell line.
Cytate 1 was evaluated in the CA20948 Lewis rat model. […] As a control, the organs were imaged again (FIG. 4A) and the image was compared with that of the same tissues in the uninjected rat (FIG. 4B).

[4] = test system: Prostatic Carcinoma (R3327-H); test: In vivo fluorescence imaging of prostatic carcinoma (R3327-H) in rats; set-up: species or system young male Copenhagen rats; conditions: Dunning R3327-H
Text: as §1
as §2, with “Each animal received 500 μL of a 0.42 mg/mL solution of ICG in water.” left out

[5] = test system: pancreatic ductal adenocarcinoma (DSL 6A); test: In vivo fluorescence imaging of pancreatic ductal adenocarcinoma (DSL 6A) in rats; set-up: species or system male Lewis rats
Text: as §1
DSL 6A tumors were induced in male Lewis rats in the left flank area by the introduction of material from a solid (donor) implant and the tumors were palpable in approximately 14 days.
The animals were anesthetized with rat cocktail (xylazine; ketamine; acepromazine 1.5: 1.5: 0.5) at 0.8 mL/kg via intramuscular injection. The area of the tumor (left flank) was shaved to expose tumor and surrounding surface area. […]

[6] = test system: somatostatin (SST-2) receptors; conditions: cited from earlier work

Question: Which results are given for `C[C@@H](O)[C@H](NC(=O)[C@@H]1CSSC[C@H](NC(=O)[C@@H](Cc2ccccc2)NC(=O)CC[N+]2=C(/C=C/C=C/C=C/C=C3/N(CCC(=O)O)c4ccc5ccccc5c4C3(C)C)C(C)(C)c3c2ccc2ccccc32)C(=O)N[C@@H](Cc2ccc(O)cc2)C(=O)N[C@H](Cc2c[nH]c3ccccc23)C(=O)N[C@@H](CCCCN)C(=O)N[C@@H]([C@@H](C)O)C(=O)N1)C(=O)O` [Cytate 1, monoOctreotate-Bisethylcarboxymethylindocyanine dye]?
Answer: decay of fluorescence signal (blood clearance) [1]: decayed as a function of time as the conjugate cleared from the bloodstream; fluorescence signal after bolus injection (rise) [1]: rapidly increased to a peak value; uptake in heart, muscle, spleen and liver [2]: significantly less uptake; uptake in pancreas, adrenals and tumor tissue [2]: High uptake; uptake into the tumor ([3]; CA20948, 2 minutes post injection, 500 μL of 1.0 mg/mL in 25% dimethylsulfoxide in water): Uptake into the tumor was seen at 2 minutes; fluorescence in tumored rats at 45 minutes ([3]; CA20948): still quite intense; localization in the tumor ([3]; CA20948, 90 minutes post injection (FIG. 3A)): strong localization; specificity for the SST-2 receptors ([3]; CA20948, 19 hours post injection): showing specificity of this agent for the SST-2 receptors; tumor visualization ([3]; CA20948, 19 hours post injection (FIG. 3B)): tumor visualization was easily observed; duration of dye fluorescence in the tumor ([3]; CA20948, post-injection): remained intense in the tumor for several hours post-injection

Question: With `C[C@@H](O)[C@H](NC(=O)[C@@H]1CSSC[C@H](NC(=O)[C@@H](Cc2ccccc2)NC(=O)CCN2C(=CC=CC=CC=CC3=[N+](CCC(=O)N[C@H](Cc4ccccc4)C(=O)N[C@H]4CSSC[C@@H](C(=O)N[C@H](C(=O)O)[C@@H](C)O)NC(=O)[C@H]([C@@H](C)O)NC(=O)[C@H](CCCCN)NC(=O)[C@@H](Cc5c[nH]c6ccccc56)NC(=O)[C@H](Cc5ccc(O)cc5)NC4=O)c4ccc5ccccc5c4C3(C)C)C(C)(C)c3c2ccc2ccccc32)C(=O)N[C@@H](Cc2ccc(O)cc2)C(=O)N[C@H](Cc2c[nH]c3ccccc23)C(=O)N[C@@H](CCCCN)C(=O)N[C@@H]([C@@H](C)O)C(=O)N1)C(=O)O` [Cytate 2, bisOctreotate-Bisethylcarboxymethylindocyanine dye] as the molecule, how does the “decay of fluorescence signal (blood clearance)” value [1] read?
Answer: decayed as a function of time as the conjugate cleared from the bloodstream

Question: What about the “fluorescence signal after bolus injection (rise)” value [1] of the same molecule?
Answer: rapidly increased to a peak value

Question: What does the source list for `CC1(C)C(/C=C/C=C/C=C/C=C2\N(CCCCS(=O)(=O)O)c3ccc4ccccc4c3C2(C)C)=[N+](CCCCS(=O)(=O)[O-])c2ccc3ccccc3c21` [ICG, indocyanine green]?
Answer: perfusion of the agent into the tumor [4]: slow perfusion of the agent over time into the tumor; reasonable images obtained [4]: reasonable images were obtained; reasonable images obtained [5]: reasonable images were obtained; perfusion of the agent into the tumor ([5]; 500 μL of 0.42 mg/mL in water): slow perfusion of the agent over time into the tumor; perfusion of the agent into the tumor ([3]; CA20948, 30 minutes post injection): only a slight but transient perfusion that was absent after only 30 minutes post injection; fluorescence in tumored rats at 45 minutes ([3]; CA20948): mostly cleared; non-specific localization ([3]; CA20948 compared to the other two tumor lines): no non-specific localization

Question: For `C[C@@H](O)[C@H](NC(=O)[C@@H]1CSSC[C@H](NC(=O)[C@H](N)Cc2ccccc2)C(=O)N[C@@H](Cc2ccc(O)cc2)C(=O)N[C@H](Cc2c[nH]c3ccccc23)C(=O)N[C@@H](CCCCN)C(=O)N[C@@H]([C@@H](C)O)C(=O)N1)C(=O)O` [Octreotate, D-Phe-Cys'-Tyr-D-Trp-Lys-Thr-Cys'-Thr], which “targeting of somatostatin (SST-2) receptors” value [6] is on record?
Answer: known to target somatostatin (SST-2) receptors

From patent publication US6217848A, “Cyanine and indocyanine dye bioconjugates for biomedical applications” (Mallinckrodt Inc., priority 1999, dated 2001)
